Test results reported in patent US10407409B2, “6-(5-hydroxy-1H-pyrazol-1-yl)nicotinamide inhibitors of PHD” (Takeda Pharmaceutical Company Limited, priority 2013, dated 2019).

Legend:
[1] = molecular target: PHD2 enzyme (residues 181-417) (Homo sapiens (Human), UniProt Q9GZT9); test: Inhibition of PHD enzyme (LC/MS peptide hydroxylation assay); assay type: biochemical; details: PHD2 (residues 181-417) 5 nM, 60 min pre-incubation; -log(IC50), IC50 molar
Summary of the method: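 Hydroxylated peptide quantified by LC/MS after 60 min turnover of 1 uM biotinylated peptide with 2 uM 2-oxoglutarate and 1 mM ascorbate, stopped by excess tight-binding inhibitor. Beforehand, 5 nM enzyme and compound were preincubated 60 min at RT, pH 7.3 HEPES/KCl/TCEP/FeCl2/BSA buffer. Values as pIC50 (−log molar IC50).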

[2] = system: HIF1a protein in H9c2 rat cardiomyocytes; test: Cell-based HIF-alpha stabilization assay (inhibition of PHD in cells); details: Rattus norvegicus, H9c2, 24 h, 24 hrs compound incubation, HIF1a protein by ELISA, read-out: Inhibition of PHD in cells (pEC50) (converted)
Summary of the method: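 HIF1a stabilization was measured by ELISA on lysates of H9c2 rat cardiomyocytes after 24 h exposure to 11 serial compound concentrations, expressed relative to the desferrioxamine maximum. Curve fits gave EC50. EC50pos denotes the concentration producing half the desferrioxamine maximal response.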

Chain of PHD2 enzyme (residues 181-417) (Q9GZT9 181-417): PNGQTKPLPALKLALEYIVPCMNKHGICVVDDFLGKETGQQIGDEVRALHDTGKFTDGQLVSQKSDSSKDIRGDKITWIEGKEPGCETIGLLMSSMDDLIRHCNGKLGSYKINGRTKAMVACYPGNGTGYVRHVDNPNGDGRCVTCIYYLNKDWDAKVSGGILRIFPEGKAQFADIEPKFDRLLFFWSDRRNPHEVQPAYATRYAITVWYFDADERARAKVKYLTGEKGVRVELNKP

PHD Inhibition (pIC50) [1] | Structure (SMILES) | EC50 [2] [µM]
7.99 | Cc1cc(C#N)ccc1-c1cnn(-c2ccc(C(=O)N3CCN(CCN(C)C)CC3)cn2)c1O [Example 423, 4-(1-(5-(4-(2-(dimethylamino)ethyl)piperazine-1-carbonyl)pyridin-2-yl)-5-hydroxy-1H-pyrazol-4-yl)-3-methylbenzonitrile] | 0.708
8.22 | CCCN1CCC(N(C)C(=O)c2ccc(-n3ncc(-c4ccc(C#N)cc4C)c3O)nc2)CC1 [Example 294, 6-(4-(4-cyano-2-methylphenyl)-5-hydroxy-1H-pyrazol-1-yl)-N-methyl-N-(1-propylpiperidin-4-yl)nicotinamide] | 1.12
7.8 | Cc1cc(C#N)ccc1-c1cnn(-c2ccc(C(=O)N(C)C3CC3)cn2)c1O [Example 246, 6-(4-(4-cyano-2-methylphenyl)-5-hydroxy-1H-pyrazol-1-yl)-N-cyclopropyl-N-methylnicotinamide] | 0.407
8.04 | Cc1cc(C#N)ccc1-c1cnn(-c2ccc(C(=O)N3C[C@H]4CN(C)C[C@H]4C3)cn2)c1O [Example 292, 4-(5-hydroxy-1-(5-((3aR,6aS)-5-methyloctahydropyrrolo[3,4-c]pyrrole-2-carbonyl)pyridin-2-yl)-1H-pyrazol-4-yl)-3-methylbenzonitrile] | 0.407

Further lines, the compound ahead of its results:

Structure (SMILES) | PHD Inhibition (pIC50) [1] | EC50 [2] [µM]
CN(C)CCCNC(=O)c1ccc(-n2ncc(-c3ccc(C#N)cc3)c2O)nc1 [Example 269, 6-(4-(4-cyanophenyl)-5-hydroxy-1H-pyrazol-1-yl)-N-(3-(dimethylamino)propyl)nicotinamide] | 6.82 | 1.95
COc1cc(-c2cnn(-c3ccc(C(=O)N[C@H]4CC[C@@H](O)CC4)cn3)c2O)ccn1 [Example 166, 6-(5-hydroxy-4-(2-methoxypyridin-4-yl)-1H-pyrazol-1-yl)-N-((1s,4s)-4-hydroxycyclohexyl)nicotinamide] | 7.28 | 0.437
COc1cc(-c2cnn(-c3ccc(C(=O)NCCOC(C)C)cn3)c2O)ccn1 [Example 7, 6-(5-hydroxy-4-(2-methoxypyridin-4-yl)-1H-pyrazol-1-yl)-N-(2-isopropoxyethyl)nicotinamide] | 7.03 | 1
COCC[C@@H](C)NC(=O)c1ccc(-n2ncc(-c3ccc(C#N)cc3C)c2O)nc1 [Example 359, (R)-6-(4-(4-cyano-2-methylphenyl)-5-hydroxy-1H-pyrazol-1-yl)-N-(4-methoxybutan-2-yl)nicotinamide] | 8.45 | 0.537
COc1nccc(-c2cnn(-c3ccc(C(=O)NCC4CCOCC4)cn3)c2O)c1OC [Example 255, 6-(4-(2,3-dimethoxypyridin-4-yl)-5-hydroxy-1H-pyrazol-1-yl)-N-((tetrahydro-2H-pyran-4-yl)methyl)nicotinamide] | 7.6 | 1.45
CC[C@H](C)NC(=O)c1ccc(-n2ncc(-c3ccc(C#N)cc3C)c2O)nc1 [Example 122, (S)—N-(sec-butyl)-6-(4-(4-cyano-2-methylphenyl)-5-hydroxy-1H-pyrazol-1-yl)nicotinamide] | 7.06 | 0.0955
COCCCNC(=O)c1ccc(-n2ncc(-c3ccc(C#N)cc3F)c2O)nc1 [Example 213, 6-(4-(4-cyano-2-fluorophenyl)-5-hydroxy-1H-pyrazol-1-yl)-N-(3-methoxypropyl)nicotinamide] | 7.45 | 0.38
Cc1c(-c2cnn(-c3ccc(C(=O)N4CCC[C@@H](N(C)C5CC5)C4)cn3)c2O)ccc(C#N)c1F [Example 331, (R)-4-(1-(5-(3-(cyclopropyl(methyl)amino)piperidine-1-carbonyl)pyridin-2-yl)-5-hydroxy-1H-pyrazol-4-yl)-2-fluoro-3-methylbenzonitrile] | 8.33 | 0.813
